Data published in PubChem BioAssay (NCI).
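1) Cells in 96-well plates. 2) Compound, 48 h, 5 concentrations. 3) Linear interpolation between surrounding doses. 4) Unreached endpoint = highest concentration. Here, GI50 denotes the concentration required for 50% inhibition of growth. TGI: concentration producing complete growth inhibition.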

Legend:
Assay in all cases: growth of human tumour cells (NCI), 48 h; in the data active = GI50 below about 0.43 µM; inactive = the rest
[1] = test system: HOP-62 NSCLC
[2] = test system: SW-620 colon
[3] = test system: SNB-19 CNS
[4] = test system: HOP-92 NSCLC
[5] = test system: OVCAR-3 ovarian
[6] = test system: U251 CNS
[7] = test system: SNB-75 CNS
[8] = test system: HL-60(TB) leukemia
[9] = test system: NCI-H23 lung
[10] = test system: DU-145 prostate
[11] = test system: LOX IMVI melanoma
[12] = test system: SF-539 CNS
[13] = test system: HCT-116 colon
[14] = test system: UACC-62 melanoma
[15] = test system: SN12C renal
[16] = test system: MALME-3M melanoma
[17] = test system: 786-0 renal
[18] = test system: RXF 393 renal
[19] = test system: OVCAR-5 ovarian
[20] = test system: UO-31 renal
[21] = test system: HCT-15 colon
[22] = test system: SK-MEL-2 melanoma
[23] = test system: NCI-H460 lung
[24] = test system: SF-268 CNS
[25] = test system: SK-OV-3 ovarian
[26] = test system: CAKI-1 renal
[27] = test system: BT-549 breast
[28] = test system: MOLT-4 leukemia
[29] = test system: COLO 205 colon
[30] = test system: SF-295 CNS
[31] = test system: A549 NSCLC
[32] = test system: OVCAR-4 ovarian
[33] = test system: HCC-2998 colon
[34] = test system: KM12 colon
[35] = test system: HT29 colon
[36] = test system: UACC-257 melanoma
[37] = test system: SR leukemia
[38] = test system: HS 578T breast
[39] = test system: SK-MEL-28 melanoma
[40] = test system: MDA-MB-231 breast
[41] = test system: OVCAR-8 ovarian
[42] = test system: NCI/ADR-RES ovarian
[43] = test system: TK-10 renal
[44] = test system: MCF7 breast
[45] = test system: CCRF-CEM leukemia
[46] = test system: K-562 leukemia
[47] = test system: IGROV1 ovarian
[48] = test system: ACHN renal
[49] = test system: PC-3 prostate
[50] = test system: NCI-H226 lung
[51] = test system: A498 renal
[52] = test system: T-47D breast
[53] = test system: M14 melanoma
[54] = test system: SK-MEL-5 melanoma
[55] = test system: NCI-H522 lung
[56] = test system: EKVX NSCLC
[57] = test system: RPMI-8226 leukemia
[58] = test system: MDA-MB-435

OCc1ccc(-c2nc(-c3ccc4c(c3)OCO4)c(-c3ccccn3)[nH]2)cc1
> 25 µM: TGI [1] | TGI [2] | TGI [3] | TGI [4] | TGI [5] | TGI [6] | TGI [7] | TGI [8] | TGI [9] | TGI [10] | TGI [11] | TGI [12] | TGI [13] | TGI [14] | TGI [15] | TGI [16] | TGI [17] | TGI [18] | TGI [19] | TGI [20] | TGI [21] | TGI [22] | TGI [23] | TGI [24] | TGI [25] | TGI [26] | TGI [27] | TGI [28] | TGI [29] | TGI [30] | TGI [31] | TGI [32] | TGI [33] | TGI [34] | TGI [35] | TGI [36] | TGI [37] | TGI [38] | TGI [39] | TGI [40] | TGI [41] | TGI [42] | TGI [43] | TGI [44] | TGI [45] | TGI [46] | TGI [47] | TGI [48] | TGI [49] | TGI [50] | TGI [51] | TGI [52] | TGI [53] | TGI [54] | TGI [55] | TGI [56] | TGI [57] | TGI [58]
inactive: GI50 [1] > 25 µM | GI50 [2] > 25 µM | GI50 [3] > 25 µM | GI50 [4] > 12.9 µM | GI50 [5] > 25 µM | GI50 [6] > 25 µM | GI50 [7] > 7.04 µM | GI50 [8] > 25 µM | GI50 [9] > 25 µM | GI50 [10] > 25 µM | GI50 [11] 19 µM | GI50 [12] > 25 µM | GI50 [13] > 25 µM | GI50 [14] > 25 µM | GI50 [15] > 25 µM | GI50 [16] > 25 µM | GI50 [17] > 25 µM | GI50 [18] > 16.5 µM | GI50 [19] > 22.8 µM | GI50 [20] > 23.6 µM | GI50 [21] 15.1 µM | GI50 [22] > 25 µM | GI50 [23] > 20.9 µM | GI50 [24] > 25 µM | GI50 [25] > 25 µM | GI50 [26] 11.4 µM | GI50 [27] > 25 µM | GI50 [28] > 25 µM | GI50 [29] > 25 µM | GI50 [30] > 25 µM | GI50 [31] > 25 µM | GI50 [32] > 25 µM | GI50 [33] > 25 µM | GI50 [34] > 25 µM | GI50 [35] > 25 µM | GI50 [36] > 25 µM | GI50 [37] > 25 µM | GI50 [38] > 25 µM | GI50 [39] > 25 µM | GI50 [40] 10.2 µM | GI50 [41] > 25 µM | GI50 [42] 10.4 µM | GI50 [43] > 25 µM | GI50 [44] > 25 µM | GI50 [45] > 25 µM | GI50 [46] > 25 µM | GI50 [47] > 25 µM | GI50 [48] > 25 µM | GI50 [49] > 25 µM | GI50 [50] > 25 µM | GI50 [51] > 25 µM | GI50 [52] > 23.2 µM | GI50 [53] > 25 µM | GI50 [54] > 20 µM | GI50 [55] > 25 µM | GI50 [56] > 25 µM | GI50 [57] 15.9 µM | GI50 [58] > 25 µM
